In US6156700A, “3-(1,2-Benzisothiazol- and isoxazol-5-yl)-2,4(1H,3H)-pyrimidinedione or thione and 3-(1,2-benzisothiazol- and isoxazol-5-yl)-4(3H)-pyrimidinone or thione herbicidal agents” (American Cyanmid Company, priority 1998, dated 2000):

What was measured:
Conditions in all cases: 0.0630 kg/ha
[1] = test system: Velvetleaf, Abutilon theophrasti; assay: Postemergence herbicidal evaluation, ABUTH; type: in vivo, Medic.
Experimental: (§1) In the tests, seedling plants are grown in jiffy flats for about two weeks. The test compounds are dispersed in 50/50 acetone/water mixtures containing 0.5% TWEEN®20, a polyoxyethylene sorbitan monolaurate surfactant of Atlas Chemical Industries, in sufficient quantities to provide the equivalent of about 0.0157 kg to 0.500 kg per hectare of active compound when applied to the plants through a spray nozzle operating at 40 psi for a predetermined time. After spraying, the plants are placed on greenhouse benches and are cared for in accordance with conventional greenhouse procedures. From four to five weeks after treatment, the seedling plants are examined and rated according to the rating system set forth below. Where more than one test is involved for a given compound, the data are averaged.
(§2) Results of herbicide evaluation are expressed on a rating scale (0-9). The scale is based upon a visual observation of plant stand, vigor, malformation, size, chlorosis and overall plant appearance as compared with a control.

[2] = test system: Ragweed, Common, Ambrosia artemisifolia; assay: Postemergence herbicidal evaluation, AMBEL; type: in vivo, L.
Experimental: as §1, §2

[3] = test system: Sicklepod, Cassia obtusifolia; assay: Postemergence herbicidal evaluation, CASOB; type: in vivo, L.
Experimental: as §1, §2

[4] = test system: Lambsquarters, Common, Chenopodium album; assay: Postemergence herbicidal evaluation, CHEAL; type: in vivo, L.
Experimental: as §1, §2

Galium, Galium aparine = assay: Postemergence herbicidal evaluation, GALAP; type: in vivo
Experimental: as §1, §2

[5] = test system: Morningglory, Ivyleaf, Ipomoea hederacea; assay: Postemergence herbicidal evaluation, IPOHE; type: in vivo, (L.) Jacq.
Experimental: as §1, §2

[6] = test system: Barnyardgrass, Echinochloa crus-galli; assay: Postemergence herbicidal evaluation, ECHCG; type: in vivo, (L.) Beau
Experimental: as §1, §2

[7] = test system: Foxtail, Green, Setaria viridis; assay: Postemergence herbicidal evaluation, SETVI; type: in vivo, (L.) Beau
Experimental: as §1, §2

[8] = test system: Soybean, Williams, Glycine max; assay: Postemergence herbicidal evaluation, GLXMAW; type: in vivo, (L.) Merr. cv Williams
Experimental: as §1, §2

[9] = test system: Rice, Tebonnet, Oryza sativa; assay: Postemergence herbicidal evaluation, ORYSAT; type: in vivo, (L.) Tebonnet
Experimental: as §1, §2

[10] = test system: Wheat, Winter, cv Riband, Triticum aestivum; assay: Postemergence herbicidal evaluation, TRZAWR; type: in vivo
Experimental: as §1, §2

Corn, Field, Zea mays = assay: Postemergence herbicidal evaluation, ZEAMX; type: in vivo, L.
Experimental: as §1, §2

Row | Compound | herbicide rating (0-9) [1] | herbicide rating (0-9) [2] | herbicide rating (0-9) [3] | herbicide rating (0-9) [4] | herbicide rating (0-9) (Galium, Galium aparine) | herbicide rating (0-9) [5] | herbicide rating (0-9) [6] | herbicide rating (0-9) [7] | herbicide rating (0-9) [8] | herbicide rating (0-9) [9] | herbicide rating (0-9) [10] | herbicide rating (0-9) (Corn, Field, Zea mays)
1 | Cc1ccc(OC(C)C(=O)OCc2ccco2)c(-c2nsc3ccc(-n4c(=O)cc(C(F)(F)F)n(C)c4=O)cc23)c1 (stereo not drawn) [Compound 79, Furfuryl 2-{{2-{5-[3,6-dihydro-3-methyl-2,6-dioxo-4-(trifluoromethyl)-1(2H)-pyrimidinyl]-1,2-benzisothiazol-3-yl}-p-tolyl}oxy}propionate] | 9.0 | 9.0 | 7.0 | 9.0 | 9.0 | 9.0 | 9.0 | 9.0 | 7.5 | 7.5 | 8.5 | 7.5
2 | C#CCOC(=O)C(C)Oc1ccc(C)cc1-c1nsc2ccc(-n3c(=O)cc(C(F)(F)F)n(C)c3=O)cc12 (stereo not drawn) [Compound 77, 2-Propynyl 2-{{2-{5-[3,6-dihydro-3-methyl-2,6-dioxo-4-(trifluoromethyl)-1(2H)-pyrimidinyl]-1,2-benzisothiazol-3-yl}-p-tolyl}oxy}propionate] | 9.0 | 9.0 | 4.0 | 9.0 | 9.0 | 9.0 | 9.0 | 9.0 | 7.0 | 9.0 | 9.0 | 8.0
3 | Cn1c(C(F)(F)F)cc(=O)n(-c2ccc3snc(Cl)c3c2)c1=O [Compound 37, 3-(3-chloro-1,2-benzisothiazol-5-yl)-1-methyl-6-(trifluoromethyl)-2,4(1H,3H)-pyrimidinedione] | 1.0 | 0.0 | 0.0 | 0.0 | 0.0 | 1.0 | 0.0 | 0.0 | 1.5 | 0.5 | 0.5 | 2.0
4 | Cc1ccc(OCC(=O)OCCN(C)C)c(-c2nsc3ccc(-n4c(=O)cc(C(F)(F)F)n(C)c4=O)cc23)c1 [Compound 70, 2-(Dimethylamino)ethyl {{2-[5-[3,6-dihydro-3-methyl-2,6-dioxo-4-(trifluoromethyl)-1(2H)-pyrimidinyl]-1,2-benzisothiazol-3-yl}-p-tolyl}oxy}acetate] | 9.0 | 9.0 | 9.0 | 9.0 | 5.0 | 9.0 | 9.0 | 9.0 | 8.0 | 3.0 | 5.0 | 6.0
5 | Cn1c(C(F)(F)F)cc(=O)n(-c2ccc3snc(Br)c3c2)c1=O [Compound 36, 3-(3-Bromo-1,2-benzisothiazol-5-yl)-1-methyl-6-(trifluoromethyl)-2,4(1H,3H)-pyrimidinedione] | 0.0 | 0.0 | 0.0 | 0.0 | 0.0 | 1.0 | 1.0 | 9.0 | 0.0 | 0.5 | 0.5 | 1.5
6 | Cc1ccc(OCC(=O)OC(C)(C)C)c(-c2nsc3ccc(-n4c(=O)cc(C(F)(F)F)n(C)c4=O)cc23)c1 [Compound 68, tert-Butyl {{2-{5-[3,6-dihydro-3-methyl-2,6-dioxo-4-(trifluoromethyl)-1(2H)-pyrimidinyl]-1,2-benzisothiazol-3-yl}-p-tolyl}oxy}acetate] | 6.0 | 5.0 | 9.0 | 9.0 | 2.0 | 9.0 | 5.0 | 9.0 | 5.5 | 2.0 | 3.5 | 5.0
7 | CC#CCOC(=O)C(C)Oc1ccc(C)cc1-c1nsc2ccc(-n3c(=O)cc(C(F)(F)F)n(C)c3=O)cc12 (stereo not drawn) [Compound 80, 2-Butynyl 2-{{2-{5-[3,6-dihydro-3-methyl-2,6-dioxo-4-(trifluoromethyl)-1(2H)-pyrimidinyl]-1,2-benzisothiazol-3-yl}-p-tolyl}oxy}propionate] | 9.0 | 9.0 | 7.0 | 9.0 | 9.0 | 9.0 | 9.0 | 9.0 | 7.5 | 7.5 | 8.0 | 7.5
8 | Cc1ccc(OCC(=O)n2cnc3ccccc32)c(-c2nsc3ccc(-n4c(=O)cc(C(F)(F)F)n(C)c4=O)cc23)c1 [Compound 62] | 9.0 | 9.0 | 7.0 | 9.0 | 6.0 | 9.0 | 9.0 | 9.0 | 9.0 | 5.5 | 5.5 | 7.0
9 | COCc1nsc2ccc(-n3c(=O)cc(C(F)(F)F)n(C)c3=O)cc12 [Compound 31, 3-[3-(Methoxymethyl)-1,2-benzisothiazol-5-yl]-1-methyl-6-(trifluoromethyl)-2,4 (1H,3H)-pyrimidinedione] | 9.0 | 9.0 | 9.0 | 9.0 | 8.0 | 9.0 | 4.0 | 9.0 | 9.0 | 3.0 | 3.0 | 6.0
10 | Cc1ccc(OCC(=O)OCc2ccccn2)c(-c2nsc3ccc(-n4c(=O)cc(C(F)(F)F)n(C)c4=O)cc23)c1 [Compound 72, 2-Pyridylmethyl {{2-{5-[3,6-dihydro-3-methyl-2,6-dioxo-4-(trifluoromethyl)-1(2H)-pyrimidinyl]-1,2-benzisothiazol-3-yl}-p-tolyl}oxy}acetate] | 9.0 | 9.0 | 7.0 | 9.0 | 9.0 | 9.0 | 9.0 | 9.0 | 9.0 | 7.5 | 7.5 | 8.0
11 | CCC(CC)OC(=O)COc1ccc(C)cc1-c1nsc2ccc(-n3c(=O)cc(C(F)(F)F)n(C)c3=O)cc12 [Compound 83, 1-Ethylpropyl {{2-{5-[3,6-dihydro-3-methyl-2,6-dioxo-4-(trifluoromethyl)-1(2H)-pyrimidinyl)-1,2-benzisothiazol-3-yl}-p-tolyl}oxy}acetate] | 9.0 | 9.0 | 3.0 | 9.0 | 7.0 | 9.0 | 9.0 | 9.0 | 8.0 | 7.5 | 6.5 | 6.0
12 | CC#CCOC(=O)COc1ccc(C)cc1-c1nsc2ccc(-n3c(=O)cc(C(F)(F)F)n(C)c3=O)cc12 [Compound 75] | 9.0 | 9.0 | 7.0 | 9.0 | 7.0 | 9.0 | 9.0 | 9.0 | 9.0 | 6.5 | 9.0 | 7.5
